Values quoted from earlier work in patent US20210386978A1, “Drug Delivery Devices and Systems for Local Drug Delivery to the Upper Urinary Tract” (TARIS Biomedical LLC, priority 2018, published 2021).
Where a name gives a salt, the structure may show the parent alone.

Conditions: solubility terms in the same block are defined in water at 37° C.
For `Nc1ccn([C@@H]2O[C@H](CO)[C@@H](O)C2(F)F)c(=O)n1` [gemcitabine HCl], the approximate solubility is given as ~80 mg/mL. In the case of `Nc1ccn([C@@H]2O[C@H](CO)[C@@H](O)C2(F)F)c(=O)n1` [gemcitabine base], the approximate solubility is given as ~15 mg/mL. In the case of `Cc1ccc(O)c([C@H](CCN(C(C)C)C(C)C)c2ccccc2)c1` [tolterodine tartrate], the approximate solubility is given as ~12 mg/mL. In the case of `O=C(O[C@H]1C[C@H]2CC[C@@H](C1)[N+]21CCCC1)C(O)(c1ccccc1)c1ccccc1` [trospium chloride], the approximate solubility is listed as ~500 mg/mL.
